SMILES strings stand for the structures. Like-named read-outs stand apart in the source and are kept apart here.

In experiment [1] the test system is HCT116 homozygous MTAP knockout cells. Kind of experiment: Proliferation assay (CellTiter-Glo, 10 days of treatment), HCT116 MTAP knockout. It is filed as cell-based. Particulars: read-out: Proliferation HCT116MTAP_KO IC50. As to the method: (§1) 1. HCT116 MTAP Knockout Model
(§2) HCT116 cells were genetically engineered to knock out the function of both MTAP alleles using a CRISPR/Cas9 system and an sgRNA targeting the MTAP gene. Following Cas9/MTAP sgRNA transduction, clones were screened to confirm that each allele of the MTAP gene had been inactivated (i.e., homozygous MTAP knock out) creating an MTAP-deficient cell.
(§3) Control samples were analyzed in parallel.
Briefly, on Day 0, 250 HCT116 parental or HCT116 homozygous MTAP knockout cell were seeded in 96 well plates in McCoy's 5A supplemented with 10% fetal bovine serum and pen/strep and the cells were incubated overnight at 37° C. plus 5% CO2.
The following day, cells were treated with DMSO vehicle control or a dose response of PRMT5 inhibitors and incubated at 37 C plus 5% CO2 for five days. On Day 6, the cells were trypsinized and split 1:10 into new 96-well plates with fresh medium containing the same concentration of PRMT5 inhibitor and incubated for an additional 5 days at 37° C. plus 5% CO^2.
On Day 11, the viability of the cells was measured using a CTG assay kit (CellTiter-Glo; Promega cat.no G7573) in accordance with the manufacturer's instructions. The IC50 values for each compound after 10 days of treatment were calculated using GraphPad PRISM software.
For orientation: In ATP-based viability assays light output follows the ATP content of the culture.

Experiment [2] deals with PRMT5-dependent Symmetric Di-methyl Arginine signal in HCT116 homozygous MTAP knockout cells. Kind of experiment: SYM11 In-Cell Western, HCT116 MTAP knockout. It is filed as cell-based. How it is done: as §1, §2, §3
Briefly, on Day 0, 2,000 HCT116 parental or HCT116 homozygous MTAP knockout cells were seeded in 96 well plates in McCoy's 5A supplemented with 10% fetal bovine serum and pen/strep and the cells were incubated overnight at 37° C. plus 5% CO2. The following day, cells were treated with DMSO vehicle control or a dose response of PRMT5 inhibitors, and incubated at 37° C. plus 5% CO^2 for four days.
After 4 days of treatment, the cells were fixed by adding 50 μl of 4% paraformaldehyde solution to each well and the cells were incubated for 20 min at room temperature. The paraformaldehyde solution was removed, 150 μl of ice-cold methanol was added and the plate was placed −20° C. for 10 minutes. The methanol was removed, 150 μl of Odyssey Blocking buffer+0.05% Tween20 was added and the plate was incubated at room temperature with shaking for one hour.
The primary SYM11 antibody solution was removed by aspiration and the wells were washed three consecutive times with phosphate buffered saline containing 0.1% Tween-20 (PBST).
The secondary antibody solution was removed by aspiration and the wells were washed three consecutive times with PB ST.
The SYM11 signal and the DRAQ5 signal were quantified using a Li-Cor Odyssey machine reading at […], respectively. The SYM11/DRAQ5 ratio was used to calculate the inhibition of Symmetric Dimethyl Arginine as percent of DMSO control.

Setting [3] is: Homo sapiens, HCT-116, 96 h, HCT116 homozygous MTAP knockout cells, 4 days of treatment, SYM11/DRAQ5 ratio; read-out: In-cell-Western (SYM11) HCT116 MTAP_KO IC50.
Where [4] appears, read: read-out: In-cell-Western (SYM11) HCT116 MTAP_KO IC50; HCT116 homozygous MTAP knockout cells, 4 days of treatment, SYM11/DRAQ5 ratio.

Take `Cn1cc2c(C#N)c(-c3c(-c4ccc5c(=O)[nH]nc(CN)c5c4)cnn3C)ccc2n1` [Example 4-248, 5-(4-(4-(aminomethyl)-1-oxo-1,2-dihydrophthalazin-6-yl)-1-methyl-1H-pyrazol-5-yl)-2-methyl-2H-indazole-4-carbonitrile]: the IC50 was 1160 nM in experiment [1] (Homo sapiens, HCT-116, 240 h) and > 1000 nM in experiment [2] (setting [3]).

For the molecule `Cn1ncc(-c2ccc3c(=O)[nH]nc(CN)c3c2)c1-c1ccc(Cl)c(OC2CC2)c1C#N` [Example 4-208, 6-(4-(4-(aminomethyl)-1-oxo-1,2-dihydrophthalazin-6-yl)-1-methyl-1H-pyrazol-5-yl)-3-chloro-2-cyclopropoxybenzonitrile], the IC50 in experiment [1] (Homo sapiens, HCT-116, 240 h) was found to be 124 nM; in experiment [2] (setting [3]) it was 11 nM.

Turning to `Cn1ncc(-c2ccc3c(=O)[nH]nc(CN)c3c2)c1-c1cc2ccccc2c(Cl)c1C#N` [Example 4-218, 3-(4-(4-(aminomethyl)-1-oxo-1,2-dihydrophthalazin-6-yl)-1-methyl-1H-pyrazol-5-yl)-1-chloro-2-naphthonitrile], the IC50 in experiment [1] (Homo sapiens, HCT-116, 240 h) stood at 134 nM; in experiment [2] (setting [3]), 140 nM.

Regarding `N#CCc1ccccc1Oc1cncc(-c2ccc3c(=O)[nH]nc(CN)c3c2)c1` [Example 4-235, 2-(2-((5-(4-(aminomethyl)-1-oxo-1,2-dihydrophthalazin-6-yl)pyridin-3-yl)oxy)phenyl)acetonitrile], the IC50 was > 10000 nM in experiment [1] (Homo sapiens, HCT-116, 240 h) and > 1000 nM in experiment [2] (setting [3]).

`Cc1c(-c2c(-c3ccc4c(=O)[nH]nc(CN)c4c3)cnn2C)ccc2ccccc12` [Example 12-12, 4-(aminomethyl)-6-[1-methyl-5-(1-methyl-2-naphthyl)pyrazol-4-yl]-2H-phthalazin-1-one]: the IC50 in experiment [1] (Homo sapiens, HCT-116, 240 h) was found to be 240 nM; in experiment [2] (setting [3]) it was 26 nM.

`Cn1ncc(-c2ccc3c(=O)[nH]nc(CN)c3c2)c1-c1ccc2nscc2c1C#N` [Example 4-250, 5-(4-(4-(aminomethyl)-1-oxo-1,2-dihydrophthalazin-6-yl)-1-methyl-1H-pyrazol-5-yl)benzo[c]isothiazole-4-carbonitrile]: the IC50 was 757 nM in experiment [1] (Homo sapiens, HCT-116, 240 h) and 51 nM in experiment [2] (setting [3]).

As for `Cn1nc(F)c(-c2ccc3c(=O)[nH]nc(CN)c3c2)c1-c1ccc2ccccc2c1C#N` [Example 4-247, 2-(4-(4-(aminomethyl)-1-oxo-1,2-dihydrophthalazin-6-yl)-3-fluoro-1-methyl-1H-pyrazol-5-yl)-1-naphthonitrile], the IC50 in experiment [1] (Homo sapiens, HCT-116, 240 h) is 1810 nM; in experiment [2] (setting [3]) it was > 1000 nM.

For `N#Cc1c(-c2sncc2-c2ccc3c(=O)[nH]nc(CN)c3c2)ccc2ccccc12` [Example 4-228, 2-(4-(4-(aminomethyl)-1-oxo-1,2-dihydrophthalazin-6-yl)isothiazol-5-yl)-1-naphthonitrile], the IC50 in experiment [1] (Homo sapiens, HCT-116, 240 h) is > 10000 nM; in experiment [2] (setting [3]), > 1000 nM.

On to `Cn1ncc(-c2ccc3c(=O)[nH]nc(CN)c3c2)c1-c1cc(Cl)cc(OC(F)F)c1C#N` [Example 4-243, 2-(4-(4-(aminomethyl)-1-oxo-1,2-dihydrophthalazin-6-yl)-1-methyl-1H-pyrazol-5-yl)-4-chloro-6-(difluoromethoxy)benzonitrile], for which the IC50 in experiment [1] (Homo sapiens, HCT-116, 240 h) came to 285 nM; in experiment [2] (setting [3]), 51 nM.

`CCOc1cc(-c2cnn(C)c2-c2c(F)cc3ccccc3c2C#N)cc2c(CN)n[nH]c(=O)c12` (single isomer, unassigned) [Example 16-4, 2-[4-[4-(aminomethyl)-8-ethoxy-1-oxo-2H-phthalazin-6-yl]-2-methyl-pyrazol-3-yl]-3-fluoro-naphthalene-1-carbonitrile]: the IC50 amounted to 15 nM in experiment [1] and 12 nM in experiment [2] (HCT116 homozygous MTAP knockout cells, 4 days of treatment, SYM11/DRAQ5 ratio; read-out: In-cell-Western (SYM11) HCT116 MTAP_KO IC50).

For the molecule `Cn1ncc(-c2ccc3c(=O)[nH]nc(CN)c3c2)c1-c1cccn2cncc12` [Example 4-239, 4-(aminomethyl)-6-(5-(imidazo[1,5-a]pyridin-8-yl)-1-methyl-1H-pyrazol-4-yl)phthalazin-1(2H)-one], the IC50 in experiment [1] (Homo sapiens, HCT-116, 240 h) was > 10000 nM; in experiment [2] (setting [3]) it was > 1000 nM.

On to `Cn1ncc(-c2ccc3c(=O)[nH]nc(CN)c3c2)c1-c1c(F)c(Cl)cc(OC2CC2)c1C#N` (single isomer, unassigned) [Example 16-7, 2-(4-(4-(aminomethyl)-1-oxo-1,2-dihydrophthalazin-6-yl)-1-methyl-1H-pyrazol-5-yl)-4-chloro-6-cyclopropoxy-3-fluorobenzonitrile], for which the IC50 was determined as 4000 nM in experiment [1] and 1000 nM in experiment [2] (setting [4]).

Consider `Cn1ncc(-c2ccc3c(=O)[nH]nc(CN)c3c2)c1-c1ccc2c(c1C#N)OCCC2` [Example 4-226, 7-(4-(4-(aminomethyl)-1-oxo-1,2-dihydrophthalazin-6-yl)-1-methyl-1H-pyrazol-5-yl)chromane-8-carbonitrile], for which the IC50 came out at 191 nM in experiment [1] (Homo sapiens, HCT-116, 240 h) and 10 nM in experiment [2] (setting [3]).

For `Cn1ncc(-c2ccc3c(=O)[nH]nc(CN)c3c2)c1-c1sc2ncccc2c1C#N` [Example 4-244, 2-(4-(4-(aminomethyl)-1-oxo-1,2-dihydrophthalazin-6-yl)-1-methyl-1H-pyrazol-5-yl)thieno[2,3-b]pyridine-3-carbonitrile], the IC50 in experiment [1] (Homo sapiens, HCT-116, 240 h) came out at 327 nM; in experiment [2] (setting [3]), 42 nM.

`Cn1ncc(-c2ccc3c(=O)[nH]nc(CN)c3c2)c1-c1c(C(F)F)cc2ccccc2c1C#N` [Example 4-246, 2-(4-(4-(aminomethyl)-1-oxo-1,2-dihydrophthalazin-6-yl)-1-methyl-1H-pyrazol-5-yl)-3-(difluoromethyl)-1-naphthonitrile]: the IC50 in experiment [1] (Homo sapiens, HCT-116, 240 h) stood at 72 nM; in experiment [2] (setting [3]), 50 nM.

With `Cn1ncc(-c2ccc3c(=O)[nH]nc(CN)c3c2)c1-c1cn(-c2ccccc2)nc1Cl` [Example 4-213, 4-(aminomethyl)-6-(3′-chloro-2-methyl-1′-phenyl-1′H,2H-[3,4′-bipyrazol]-4-yl)phthalazin-1(2H)-one], the IC50 in experiment [1] (Homo sapiens, HCT-116, 240 h) worked out at 1680 nM; in experiment [2] (setting [3]), 88 nM.

`Cn1ncc(-c2ccc3c(=O)[nH]nc(CN)c3c2)c1-c1c(F)c(Cl)cc(OC2CC2)c1C#N` (single isomer, unassigned) [Example 16-8, 2-(4-(4-(aminomethyl)-1-oxo-1,2-dihydrophthalazin-6-yl)-1-methyl-1H-pyrazol-5-yl)-4-chloro-6-cyclopropoxy-3-fluorobenzonitrile]: the IC50 came to 24 nM in experiment [1] and 0.8 nM in experiment [2] (setting [4]).

For the molecule `Cc1c(F)c(-c2c(-c3ccc4c(=O)[nH]nc(CN)c4c3)cnn2C)c(C#N)c2ccccc12` [Example 4-245, 2-(4-(4-(aminomethyl)-1-oxo-1,2-dihydrophthalazin-6-yl)-1-methyl-1H-pyrazol-5-yl)-3-fluoro-4-methyl-1-naphthonitrile], the IC50 came to 8 nM in experiment [1] (Homo sapiens, HCT-116, 240 h) and 7 nM in experiment [2] (setting [3]).

For the molecule `CCOc1cc2ccccc2c(C#N)c1-c1c(-c2cc(OCC)c3c(=O)[nH]nc(CN)c3c2)cnn1C` [Example 13-3, 2-[4-[4-(aminomethyl)-8-ethoxy-1-oxo-2H-phthalazin-6-yl]-2-methyl-pyrazol-3-yl]-3-ethoxy-naphthalene-1-carbonitrile], the IC50 in experiment [1] (Homo sapiens, HCT-116, 240 h) amounted to 565 nM; in experiment [2] (setting [3]) it was 298 nM.

For the molecule `Cc1cc(OC2CC2)c(C#N)c(-c2c(-c3cc(Cl)c4c(=O)[nH]nc(CN)c4c3)cnn2C)c1` [Example 10-19, 2-(4-(4-(aminomethyl)-8-chloro-1-oxo-1,2-dihydrophthalazin-6-yl)-1-methyl-1H-pyrazol-5-yl)-6-cyclopropoxy-4-methylbenzonitrile], the IC50 in experiment [1] (Homo sapiens, HCT-116, 240 h) came out at 312 nM; in experiment [2] (setting [3]), 185 nM.

On to `Cn1ncc(-c2ccc3c(=O)[nH]nc([C@H](N)C(F)F)c3c2)c1-c1ccc2ccccc2c1C#N` [Example 9-6, 2-[4-[4-[(1S)-1-amino-2,2-difluoro-ethyl]-1-oxo-2H-phthalazin-6-yl]-2-methyl-pyrazol-3-yl]naphthalene-1-carbonitrile], for which the IC50 is > 10000 nM in experiment [1] (Homo sapiens, HCT-116, 240 h) and > 1000 nM in experiment [2] (setting [3]).

For the origin of these results see US11479551B2, “MTA-cooperative PRMT5 inhibitors” (Mirati Therapeutics, Inc., priority 2019, dated 2022).
